# Reference: PMC5218480 (PLoS ONE, 2017)
# Tested on: MV-4-11 cells
# Experiment: Gene expression microarray analysis (Affymetrix PrimeView) and GSEA
# Assay type: cell-based, human
# Set-up: RFU PODN (11730768_x_at) / Fold change /veh PODN (11730768_x_at) / RFU LINC00158 (11744669_a_at) / Fold change /veh LINC00158 (11744669_a_at) / RFU DUSP10 (11751237_a_at) / Fold change /veh DUSP10 (11751237_a_at) / RFU ID3 (11757404_x_at) / Fold change /veh ID3 (11757404_x_at) / RFU PLEKHG5 (11737974_s_at) / Fold change /veh PLEKHG5 (11737974_s_at) / RFU LRRC4B (11730491_at) / Fold change /veh LRRC4B (11730491_at) / RFU GIMAP4 (11747438_a_at) / Fold change /veh GIMAP4 (11747438_a_at) / RFU KRT8 (11758183_x_at) / Fold change /veh KRT8 (11758183_x_at) / RFU CNN1 (11734310_a_at) / Fold change /veh CNN1 (11734310_a_at) / RFU VPS37D (11726825_at) / Fold change /veh VPS37D (11726825_at) / RFU C10orf10 (11716522_x_at) / Fold change /veh C10orf10 (11716522_x_at) / RFU KIR2DL2 /// KIR2DL4 /// KIR2DL5A /// KIR2DL5B /// KIR2DS1 /// KIR2DS2 /// KIR2DS3 /// KIR2DS4 /// KIR3DL3 /// KIR3DL3 /// KIR3DS1 (11738374_at) / Fold change /veh KIR2DL2 /// KIR2DL4 /// KIR2DL5A /// KIR2DL5B /// KIR2DS1 /// KIR2DS2 /// KIR2DS3 /// KIR2DS4 /// KIR3DL3 /// KIR3DL3 /// KIR3DS1 (11738374_at) / RFU C1QL1 (11718748_at) / Fold change /veh C1QL1 (11718748_at) / RFU TMPRSS4 (11747572_a_at) / Fold change /veh TMPRSS4 (11747572_a_at) / RFU HAMP (11756126_x_at) / Fold change /veh HAMP (11756126_x_at) / RFU RNFT2 (11725882_a_at) / Fold change /veh RNFT2 (11725882_a_at) / RFU NR4A2 (11747474_a_at) / Fold change /veh NR4A2 (11747474_a_at) / RFU ABCC12 (11746883_a_at) / Fold change /veh ABCC12 (11746883_a_at) / RFU TMEM136 (11760407_x_at) / Fold change /veh TMEM136 (11760407_x_at) / RFU CLDN22 /// WWC2 (11732394_at) / Fold change /veh CLDN22 /// WWC2 (11732394_at) / RFU HLA-DPB1 (11760878_x_at) / Fold change /veh HLA-DPB1 (11760878_x_at) / RFU SPINT1 (11716480_a_at) / Fold change /veh SPINT1 (11716480_a_at) / RFU GAP43 (11754022_s_at) / Fold change /veh GAP43 (11754022_s_at) / RFU A4GNT (11735810_at) / Fold change /veh A4GNT (11735810_at) / RFU PRB3 (11715151_x_at) / Fold change /veh PRB3 (11715151_x_at) / RFU TUBB4B (11761932_at) / Fold change /veh TUBB4B (11761932_at) / RFU CAPN14 (11732068_a_at) / Fold change /veh CAPN14 (11732068_a_at) / RFU TMCC2 (11721928_a_at) / Fold change /veh TMCC2 (11721928_a_at) / RFU IRGQ (11745062_a_at) / Fold change /veh IRGQ (11745062_a_at) / RFU FAM174B (11720279_a_at) / Fold change /veh FAM174B (11720279_a_at) / RFU TMPRSS4 (11748680_a_at) / Fold change /veh TMPRSS4 (11748680_a_at) / RFU FAM212B (11763350_a_at) / Fold change /veh FAM212B (11763350_a_at) / RFU PLEKHG5 (11743358_a_at) / Fold change /veh PLEKHG5 (11743358_a_at) / RFU ZSCAN30 (11745921_a_at) / Fold change /veh ZSCAN30 (11745921_a_at) / RFU CMKLR1 (11741424_a_at) / Fold change /veh CMKLR1 (11741424_a_at) / RFU LOC101060620 /// MAPK8IP1 (11723275_at) / Fold change /veh LOC101060620 /// MAPK8IP1 (11723275_at) / RFU SPTSSB (11747773_x_at) / Fold change /veh SPTSSB (11747773_x_at) / RFU PRSS12 (11739890_at) / Fold change /veh PRSS12 (11739890_at) / RFU BIN1 (11741810_x_at) / Fold change /veh BIN1 (11741810_x_at) / RFU WNT11 (11732464_a_at) / Fold change /veh WNT11 (11732464_a_at) / RFU C10orf10 (11716521_a_at) / Fold change /veh C10orf10 (11716521_a_at) / RFU C5orf56 (11738089_at) / Fold change /veh C5orf56 (11738089_at) / RFU CYB561 (11721691_x_at) / Fold change /veh CYB561 (11721691_x_at) / RFU ANKRD19P (11752326_a_at) / Fold change /veh ANKRD19P (11752326_a_at) / RFU OR2T12 /// OR2T33 /// OR2T8 (11738714_s_at) / Fold change /veh OR2T12 /// OR2T33 /// OR2T8 (11738714_s_at) / RFU VCAN (11748164_a_at) / Fold change /veh VCAN (11748164_a_at) / RFU JSRP1 (11732532_at) / Fold change /veh JSRP1 (11732532_at) / RFU KRTAP10-11 (11738290_x_at) / Fold change /veh KRTAP10-11 (11738290_x_at) / RFU MYO3A (11730013_a_at) / Fold change /veh MYO3A (11730013_a_at) / RFU EBF3 (11725865_a_at) / Fold change /veh EBF3 (11725865_a_at) / RFU CAMK2N1 (11719241_x_at) / Fold change /veh CAMK2N1 (11719241_x_at) / RFU C5orf56 (11738088_a_at) / Fold change /veh C5orf56 (11738088_a_at) / RFU OLFML3 (11715873_a_at) / Fold change /veh OLFML3 (11715873_a_at) / RFU LOC100653217 /// NTM (11731650_a_at) / Fold change /veh LOC100653217 /// NTM (11731650_a_at) / RFU MAPK11 (11762145_a_at) / Fold change /veh MAPK11 (11762145_a_at) / RFU FIZ1 (11724087_x_at) / Fold change /veh FIZ1 (11724087_x_at) / RFU OASL (11726364_x_at) / Fold change /veh OASL (11726364_x_at) / RFU SOX15 (11748057_x_at) / Fold change /veh SOX15 (11748057_x_at) / RFU CD79A (11719716_a_at) / Fold change /veh CD79A (11719716_a_at) / RFU HIST1H1D (11736915_at) / Fold change /veh HIST1H1D (11736915_at) / RFU CASKIN2 (11723855_a_at) / Fold change /veh CASKIN2 (11723855_a_at) / RFU LOC730098 (11760151_x_at) / Fold change /veh LOC730098 (11760151_x_at) / RFU OR4N2 (11742367_at) / Fold change /veh OR4N2 (11742367_at) / RFU PRRT2 (11749266_a_at) / Fold change /veh PRRT2 (11749266_a_at) / RFU SNX32 (11753110_a_at) / Fold change /veh SNX32 (11753110_a_at) / RFU CDHR5 (11726645_a_at) / Fold change /veh CDHR5 (11726645_a_at) / RFU RCAN1 (11760418_a_at) / Fold change /veh RCAN1 (11760418_a_at) / RFU FAM167A (11723789_a_at) / Fold change /veh FAM167A (11723789_a_at) / RFU FAM26E (11764081_at) / Fold change /veh FAM26E (11764081_at) / RFU ISYNA1 (11749810_s_at) / Fold change /veh ISYNA1 (11749810_s_at) / RFU ACY1 (11761880_at) / Fold change /veh ACY1 (11761880_at) / RFU 11764098_at / Fold change /veh 11764098_at / RFU SAMD14 (11745864_x_at) / Fold change /veh SAMD14 (11745864_x_at) / RFU NPB (11741838_a_at) / Fold change /veh NPB (11741838_a_at) / RFU TMPRSS6 (11731388_a_at) / Fold change /veh TMPRSS6 (11731388_a_at) / RFU KRTAP10-2 (11738614_at) / Fold change /veh KRTAP10-2 (11738614_at) / RFU ARHGAP8 /// PRR5-ARHGAP8 (11727945_x_at) / Fold change /veh ARHGAP8 /// PRR5-ARHGAP8 (11727945_x_at) / RFU KRTAP5-7 /// NADSYN1 (11734609_at) / Fold change /veh KRTAP5-7 /// NADSYN1 (11734609_at) / RFU RASL12 (11751679_a_at) / Fold change /veh RASL12 (11751679_a_at) / RFU CDKN2B (11736163_a_at) / Fold change /veh CDKN2B (11736163_a_at) / RFU PRF1 (11729649_at) / Fold change /veh PRF1 (11729649_at) / RFU, ZNF638 /// ZNF638-IT1 / Fold change vs veh, ZNF638 /// ZNF638-IT1 / RFU, PANK3 / Fold change vs veh, PANK3 / RFU, SH3YL1 / Fold change vs veh, SH3YL1 / RFU, ZEB2 / Fold change vs veh, ZEB2 / RFU, NRIP1 / Fold change vs veh, NRIP1 / RFU, PTTG1IP / Fold change vs veh, PTTG1IP / RFU, CAPN2 / Fold change vs veh, CAPN2 / RFU, MED14 / Fold change vs veh, MED14 / RFU, SNORA58 / Fold change vs veh, SNORA58 / RFU, C1orf63 / Fold change vs veh, C1orf63 / RFU, LRRFIP1 / Fold change vs veh, LRRFIP1 / RFU, NDUFAF7 / Fold change vs veh, NDUFAF7 / RFU, SLC12A2 / Fold change vs veh, SLC12A2 / RFU, IBTK / Fold change vs veh, IBTK / RFU, ESF1 / Fold change vs veh, ESF1 / Fold change vs veh, TMEM50B / RFU, TAOK1 / Fold change vs veh, TAOK1 / RFU, ACBD3 / Fold change vs veh, ACBD3 / RFU, TMA16 / Fold change vs veh, TMA16 / RFU, RWDD3 / Fold change vs veh, RWDD3 / RFU, BCAT1 / Fold change vs veh, BCAT1 / RFU, EDEM3 / Fold change vs veh, EDEM3 / RFU, TMEM33 / Fold change vs veh, TMEM33 / RFU, WDR75 / Fold change vs veh, WDR75 / RFU, AHCTF1 / Fold change vs veh, AHCTF1 / RFU, TFRC / Fold change vs veh, TFRC / RFU, ZDHHC17 / Fold change vs veh, ZDHHC17 / RFU, NOM1 / Fold change vs veh, NOM1 / RFU, ARL8B / Fold change vs veh, ARL8B / RFU, ZBTB11 / Fold change vs veh, ZBTB11 / RFU, TAMM41 / Fold change vs veh, TAMM41 / RFU, KIAA1704 /// LOC100996395 / Fold change vs veh, KIAA1704 /// LOC100996395 / RFU, ING1 / Fold change vs veh, ING1 / RFU, TRMT61B / Fold change vs veh, TRMT61B / RFU, FUBP3 / Fold change vs veh, FUBP3 / RFU, TP53 / Fold change vs veh, TP53 / RFU, TNKS2 / Fold change vs veh, TNKS2 / RFU, ZFP14 / Fold change vs veh, ZFP14 / RFU, ACTR2 / Fold change vs veh, ACTR2 / RFU, PPP3R1 / Fold change vs veh, PPP3R1 / RFU, PIK3R1 / Fold change vs veh, PIK3R1 / RFU, HNRNPA1 / Fold change vs veh, HNRNPA1 / RFU, RNF170 / Fold change vs veh, RNF170 / RFU, ZNF28 / Fold change vs veh, ZNF28 / RFU, RNGTT / Fold change vs veh, RNGTT / RFU, OGT / Fold change vs veh, OGT / RFU, BRD1 / Fold change vs veh, BRD1 / RFU, MARS / Fold change vs veh, MARS / RFU, ZNF655 / Fold change vs veh, ZNF655 / RFU, FAHD1 / Fold change vs veh, FAHD1 / RFU, BDP1 / Fold change vs veh, BDP1 / RFU, LRRCC1 / Fold change vs veh, LRRCC1 / RFU, ARID1A / Fold change vs veh, ARID1A / RFU, ZNF146 / Fold change vs veh, ZNF146 / RFU, ZNF330 / Fold change vs veh, ZNF330 / RFU, GPN3 / Fold change vs veh, GPN3 / RFU, C9orf123 / Fold change vs veh, C9orf123 / RFU, N4BP2L2 / Fold change vs veh, N4BP2L2 / RFU, ARFIP1 / Fold change vs veh, ARFIP1 / RFU, FAM179B / Fold change vs veh, FAM179B / RFU, BCL10 / Fold change vs veh, BCL10 / RFU, UHRF1BP1L / Fold change vs veh, UHRF1BP1L / RFU, BET1 / Fold change vs veh, BET1 / RFU, CNOT2 / Fold change vs veh, CNOT2 / RFU, ZNF268 / Fold change vs veh, ZNF268 / Fold change vs veh, ZNF507 / RFU, DGCR2 / Fold change vs veh, DGCR2 / RFU, WDSUB1 / Fold change vs veh, WDSUB1 / Fold change vs veh, HSP90B1 /// MIR3652 / RFU, ADSS / Fold change vs veh, ADSS / RFU, GK / Fold change vs veh, GK / RFU, ZNF148 / Fold change vs veh, ZNF148 / RFU, TAF9 / Fold change vs veh, TAF9 / RFU, SLC1A5 / Fold change vs veh, SLC1A5 / RFU, SLMO2 / Fold change vs veh, SLMO2 / RFU, ABCC4 / Fold change vs veh, ABCC4 / RFU, LOC101060439 /// RAP1B / Fold change vs veh, LOC101060439 /// RAP1B / RFU, RFX7 / Fold change vs veh, RFX7 / RFU, GTPBP10 / Fold change vs veh, GTPBP10 / RFU, CNEP1R1 / Fold change vs veh, CNEP1R1 / RFU, BIVM-ERCC5 /// ERCC5 / Fold change vs veh, BIVM-ERCC5 /// ERCC5 / RFU, ILF3 / Fold change vs veh, ILF3 / RFU 11762660_at / Fold change /veh 11762660_at / RFU VCAN (11757783_s_at) / Fold change /veh VCAN (11757783_s_at) / RFU DDX43 (11728927_at) / Fold change /veh DDX43 (11728927_at) / RFU KRT8 (11758188_x_at) / Fold change /veh KRT8 (11758188_x_at) / RFU NKD1 (11759106_at) / Fold change /veh NKD1 (11759106_at) / RFU SRD5A1 (11742802_a_at) / Fold change /veh SRD5A1 (11742802_a_at) / RFU TPSAB1 /// TPSB2 (11721975_s_at) / Fold change /veh TPSAB1 /// TPSB2 (11721975_s_at) / RFU GSTM3 (11746129_a_at) / Fold change /veh GSTM3 (11746129_a_at) / RFU IL23R (11737362_x_at) / Fold change /veh IL23R (11737362_x_at) / RFU TMEM51 (11727254_a_at) / Fold change /veh TMEM51 (11727254_a_at) / RFU PIWIL2 (11732686_x_at) / Fold change /veh PIWIL2 (11732686_x_at) / RFU ORM1 (11744905_x_at) / Fold change /veh ORM1 (11744905_x_at) / RFU CCDC152 (11743942_at) / Fold change /veh CCDC152 (11743942_at) / RFU ECM1 (11717891_a_at) / Fold change /veh ECM1 (11717891_a_at) / RFU IL23R (11748794_a_at) / Fold change /veh IL23R (11748794_a_at) / RFU TNFAIP8L3 (11732012_x_at) / Fold change /veh TNFAIP8L3 (11732012_x_at) / RFU MBOAT4 (11741988_at) / Fold change /veh MBOAT4 (11741988_at) / RFU 11764193_at / Fold change /veh 11764193_at / RFU TMEM53 (11763286_at) / Fold change /veh TMEM53 (11763286_at) / RFU MAGEB2 (11727129_at) / Fold change /veh MAGEB2 (11727129_at) / RFU TMEM200A (11744735_a_at) / Fold change /veh TMEM200A (11744735_a_at) / RFU CCDC152 (11751479_a_at) / Fold change /veh CCDC152 (11751479_a_at) / RFU FAM211A (11726209_a_at) / Fold change /veh FAM211A (11726209_a_at) / RFU RGS16 (11746705_a_at) / Fold change /veh RGS16 (11746705_a_at) / RFU VCAN (11755009_s_at) / Fold change /veh VCAN (11755009_s_at) / RFU RHOB (11743442_s_at) / Fold change /veh RHOB (11743442_s_at) / RFU RGS16 (11720943_a_at) / Fold change /veh RGS16 (11720943_a_at) / RFU RGS16 (11720944_at) / Fold change /veh RGS16 (11720944_at) / RFU, VPS4B / Fold change vs veh, VPS4B / RFU, CREB1 / Fold change vs veh, CREB1 / RFU, DNAJC13 / Fold change vs veh, DNAJC13 / RFU, GNAQ / Fold change vs veh, GNAQ / RFU, CDK5R1 / Fold change vs veh, CDK5R1 / RFU, ZRANB3 / Fold change vs veh, ZRANB3 / RFU, CUL4A / Fold change vs veh, CUL4A / RFU, CCNY / Fold change vs veh, CCNY / RFU, UFL1 / Fold change vs veh, UFL1 / RFU, COG3 / Fold change vs veh, COG3 / RFU, DIAPH2 / Fold change vs veh, DIAPH2 / RFU, SKA2 / Fold change vs veh, SKA2 / RFU, AFF3 / Fold change vs veh, AFF3 / RFU, LMF1 / Fold change vs veh, LMF1 / RFU, IPO11 / Fold change vs veh, IPO11 / RFU, DFFB / Fold change vs veh, DFFB / RFU, FOXP1 / Fold change vs veh, FOXP1 / RFU, CARD8 / Fold change vs veh, CARD8 / RFU, STRN3 / Fold change vs veh, STRN3 / RFU, ADK / Fold change vs veh, ADK / RFU, RASSF2 / Fold change vs veh, RASSF2 / RFU, WIPF1 / Fold change vs veh, WIPF1 / RFU, LARP1B / Fold change vs veh, LARP1B / RFU, RASA1 / Fold change vs veh, RASA1 / RFU, RB1 / Fold change vs veh, RB1 / RFU, PPFIA1 / Fold change vs veh, PPFIA1 / RFU, MAT2A / Fold change vs veh, MAT2A / RFU, CCT5 / Fold change vs veh, CCT5 / RFU, WDR92 / Fold change vs veh, WDR92 / RFU, CUX1 / Fold change vs veh, CUX1 / RFU, TTC7A / Fold change vs veh, TTC7A / RFU, TMEM135 / Fold change vs veh, TMEM135 / RFU, DEPTOR / Fold change vs veh, DEPTOR / RFU, CPM / Fold change vs veh, CPM / RFU, DNAJB6 / Fold change vs veh, DNAJB6 / RFU, CACNA2D3 / Fold change vs veh, CACNA2D3 / RFU, DTX4 / Fold change vs veh, DTX4 / RFU, TFCP2 / Fold change vs veh, TFCP2 / RFU, GMCL1 /// GMCL1P1 / Fold change vs veh, GMCL1 /// GMCL1P1 / RFU, AEBP2 / Fold change vs veh, AEBP2 / RFU, SNHG1 /// SNORD22 /// SNORD25 /// SNORD26 /// SNORD27 /// SNORD28 /// SNORD29 /// SNORD31 / Fold change vs veh, SNHG1 /// SNORD22 /// SNORD25 /// SNORD26 /// SNORD27 /// SNORD28 /// SNORD29 /// SNORD31 / Fold change (Aza/veh), C12orf56 (ProbeSet 11735607_a_at) / Fold change (ACY-1035/veh), C12orf56 (ProbeSet 11735607_a_at) / Fold change (Aza/veh), FGFR1OP (ProbeSet 11751329_s_at) / Fold change (ACY-1035/veh), FGFR1OP (ProbeSet 11751329_s_at) / Fold change (Aza/veh), VPS36 (ProbeSet 11739960_a_at) / Fold change (ACY-1035/veh), VPS36 (ProbeSet 11739960_a_at) / RFU SYPL1 (11715823_x_at) / Fold change /veh SYPL1 (11715823_x_at) / RFU IGFBP7 (11715501_s_at) / Fold change /veh IGFBP7 (11715501_s_at) / RFU REEP3 (11722064_at) / Fold change /veh REEP3 (11722064_at) / RFU IGLL1 (11728026_x_at) / Fold change /veh IGLL1 (11728026_x_at): dose or concentration left out as unconfirmed
# Conditions: ProbeSet 11753055_s_at; LIST B
compound,measurement,value
Nc1ccc(-c2cccs2)cc1NC(=O)c1ccc2c(c1)cc(C1CC1)n2CCN1CCOCC1 [ACY-1035],"Fold change vs veh, LOC101060439 /// RAP1B",0.99
